Test results taken from patent publication US10300070B2, “Metabolically-activated drug conjugates to overcome resistance in cancer therapy” (The Brigham and Women's Hospital, Inc., priority 2014, dated 2019).

Assays:
ROS (hydrogen peroxide) = details: 10-20 uM of paclitaxel; cited from earlier work
[1] = 20 mg/kg equivalent, 24 h, heterotopic 4T-1 model
Experimental: (§2) An in-vivo study was designed creating drug-schedules following successive doses of docetaxel at MTD or vehicle control in distinct groups. […] Finally, in effort to dissect the dosing-response of MADC vs. free drugs, a dose-titration of doxorubicin+PI103 or MADC in sequence with docetaxel was performed. […] Finally, a preliminary bio distribution study of the free doxorubicin or conjugate was performed on heterotopically-implanted 4T-1 syngeneic mammary carcninoma model. Mice were treated with 20 mg/kg equivalent of MADC or Doxorubicin or a vehicle control group (N=3 per group). […] Organ lysate was then centrifuged at 15,000 g and supernatant was filtered through a 0.2 mm filter syringe before aliquoted into quadruplicate wells of a 96-well plate. […] Autofluorescence determined from vehicle-treated control groups was subtracted from experimental groups and final fluorescence was determined as % arbitrary fluorescence units (AFU)/mg tissue as % increase from vehicle treated control values.

[2] = tested on: 4T-1 mouse mammary carcinoma; type: in vivo, mice
Experimental: Tumor volumes were assessed by the following formula: (Width×Width×length)/2 and values were utilized to calculate tumor specific growth rate (SGR) by the algorhythm (ln [V2/V1]/[t2−t1)] where V=volume and t=time in days^64.
An in-vivo study was designed creating drug-schedules following successive doses of docetaxel at MTD or vehicle control in distinct groups. […] Finally, in effort to dissect the dosing-response of MADC vs. free drugs, a dose-titration of doxorubicin+PI103 or MADC in sequence with docetaxel was performed.

mice = assay: Systemic toxicity in treated 4T-1 tumor-bearing mice (hair and weight loss, spleen, heart caspase-3); type: in vivo
Experimental: as §2

MDA-MB-231 parent or DTC [3] = assay: Cell viability (MTS) and trypan blue exclusion of parent or DTC treated with doxorubicin; type: cell-based; details: co-incubated with dox, 48 h
Experimental: (§1) MDA-MB-231 (ATCC), MDA-MB-468 and 4T-1 mammary carcinoma cells (ATCC) were cultured in DMEM containing 10% Fetal Bovine Serum (FBS) at 37 C and 5% CO2. DU145 and DU145-TxR were provided by A. Mizokami^63 and cultured in DMEM containing 10% FBS, resistant line included 100 nM paclitaxel in the culture media. During treatments with chemotherapeutics, cells were grown to semi-confluence and treated with indicated concentrations of chemotherapy in serum-containing medium for indicated time points. When small molecule inhibitors were included in treatments, they were added simultaneously with chemotherapy. For siRNA gene knockdown, cells were transfected with silencer-select siRNA plasmids (Ambion, Invitrogen, Grand Island, N.Y.) pan-CD44(1) (s2682) panCD44(2) (s2681), siHIF1A (s6539) using lipofectamine 2000 (Invitrogen, Carlsbad Calif.) following manufacturer protocol and cultured for 72 hours prior to treatment. Scrambled siRNA was used as a control. For chemotherapy treatment experiments: Cancer cells were plated at a density of 0.5-1×10^5 cells/ml and allowed to adhere for 24-48 hr. When cells reached ˜70% confluency they were treated with cytotoxics at indicated concentrations for 24-48 hours and utilized for subsequent assays. For experiments in which a shorter incubation was used (i.e. 15 min-4 hours) fresh media was added 24 hours prior to addition of chemotherapy suspended to stock concentration in PBS. For generation of DTC: Cells were treated for 48 hours with chemotherapy. Following washes with PBS, adherent cells were trypsinized and re-plated at a density of 1.5-2×10^5 cells/ml and cultured in serum-containing medium. After 24 hours incubation, floating cells were removed and remaining cells were washed with 1× PBS and considered as chemotherapy-tolerant cells. A population of drug naïve parent cells were always cultured alongside DTC and fresh media was added at every interval that experimental population (DTC) received fresh media.
Following drug incubation, cells were washed and suspended in phenol red-free RPMI or DMEM and subsequently treated with MTS reagent using manufacturer protocol (Promega, Madison, Wis.). Trypan blue exclusion was used to validate experiments and evaluate % of dead cells performed by bright field microscopy.

[4] = tested on: explant tumor tissue from taxane-refractory breast cancer patients; assay: Human refractory breast cancer explant model, glucose uptake; type: cell-based; details: chemotherapy in the presence of hexokinase inhibition, 72 h
Experimental: Anonymous human breast cancer tissues (N=7) from patients refractory to taxane-containing regimens and varying stages of disease were obtained from Mitra Biotech collected under IRB approval from HCG Bangalore Institute of Oncology with due consent. Fresh tumor tissues were collected from breast cancer patients immediately after surgical resection at HCG cancer hospital, Bangalore, India. The tumor samples were transported to the laboratory at 4° C., in appropriate transport buffer within 60 minutes post-resection, for ex-vivo studies and molecular and pathological evaluation. Tissues were cut into thin sections and cultured in 96 well plate using optimized conditions[BISWANATH REF]. Tumors were treated with a taxane, or doxorubicin at Cmax for 72 h. DMSO was used as a vehicle control. After treatment, tumor cell viability was measured. Immunohistochemistry (IHC) was performed as described in methods. Glucose uptake was evaluated 72 h post culture.
Glucose uptake assay was carried 72 hours post culture. Two micro liter of culture supernatant was added to 200 μl of Glucose reagent (Liquixx Glucose Reagent, Erbaa). All readings along with glucose standard (100 mg/dL) were run in triplicate. The plate was incubated at room temperature for 5 minutes on a plate shaker at medium speed and the absorbance was measured at 505 nm using multimode plate reader (Perkin Elmer).

MDA-MB-231 parent or DTC [5] = assay: Glucose uptake (2-NBDG) determined by FACS; type: cell-based; details: MDA-MB-231 DTC incubated with catalase for 6 hours
Experimental: as §1
In vitro detection of glucose uptake was performed using 2-(N-7-Nitrobenz-2-oxa-1,3-diazol-4-yl)Amino)-2-Deoxyglucose (2-NBDG) (Invitrogen, Carlsbad Calif.), dissolved in DMSO to 50 mM. Cells were pre-treated with kinase inhibitors or vehicle for 3 hours in glucose- and phenol red-free media before addition of 50 μM 2-NBDG and subsequently read by FACS ex/em 488/535 nm. ROS was determined by pre-loading cells with CM-DCFDA (1 μM), washed 2 times with PBS and subsequently treated with H2O2 or vehicle; when kinase inhibitors were included in treatment, cells were first incubated with inhibitor for 3 hours prior to CM-DCFDA loading. Fluorescence was then determined by FACS ex/em 488/535 nm. For the following assays, cells were trypsinized and counted by Nexcelom cell counter (Lawrence, Mass.) prior to being subjected to analysis in order to achieve a quantitative value per cell: Reduced glutathione was determined using a colorimetric glutathione recycling system by DTNB following manufacturer protocol (Biovision, Milpitas Calif.). ATP analysis was performed using the ATP colorimetric analysis kit (Biovision) according to manufacturer protocol. Reductive stress was detected using the Enzo nitroreductase hypoxia kit (Enzo Life Sciences, Ann Arbor Mich.) following manufacturer protocol and visualized by fluorescent microscopy; a set of non-docetaxel-treated control cells loaded with fluorescent probe were compared against docetaxel-treated cells to derive a % redox stress increase which was calculated as fluorescence intensity of nitroreductase probe per cell and expressed as increase from vehicle. Protein synthesis was measured by two means 1. L-azidohomoalanine amino acid analog of methionine containing an azide moiety was added to cultured cells (parent or DTC) for 3 hours which is incorporated into proteins during active protein synthesis. […]

DTC = assay: Total intracellular reduced glutathione (GSH) in drug tolerant cells; type: cell-based; details: acute (3 hours) exposure; ML-265 10 μM, catalase 2000 U/ml
Experimental: In vitro detection of glucose uptake was performed using 2-(N-7-Nitrobenz-2-oxa-1,3-diazol-4-yl)Amino)-2-Deoxyglucose (2-NBDG) (Invitrogen, Carlsbad Calif.), dissolved in DMSO to 50 mM. Cells were pre-treated with kinase inhibitors or vehicle for 3 hours in glucose- and phenol red-free media before addition of 50 μM 2-NBDG and subsequently read by FACS ex/em 488/535 nm. ROS was determined by pre-loading cells with CM-DCFDA (1 μM), washed 2 times with PBS and subsequently treated with H2O2 or vehicle; when kinase inhibitors were included in treatment, cells were first incubated with inhibitor for 3 hours prior to CM-DCFDA loading. Fluorescence was then determined by FACS ex/em 488/535 nm. For the following assays, cells were trypsinized and counted by Nexcelom cell counter (Lawrence, Mass.) prior to being subjected to analysis in order to achieve a quantitative value per cell: Reduced glutathione was determined using a colorimetric glutathione recycling system by DTNB following manufacturer protocol (Biovision, Milpitas Calif.). […] Protein synthesis was measured by two means 1. […] Fluorescence was detected by FACS as described below. […] GFP protein translation was determined by fluorescent microscopy. […] Individual cells were evaluated for fluorescent intensity of caspase-3 activity (red signal intensity) and green fluorescent protein intensity. […]

CC(=O)O[C@H]1C(=O)[C@@]2(C)[C@H]([C@H](OC(=O)c3ccccc3)[C@]3(O)C[C@H](OC(=O)[C@H](O)[C@@H](NC(=O)c4ccccc4)c4ccccc4)C(C)=C1C3(C)C)[C@]1(OC(C)=O)CO[C@@H]1C[C@@H]2O [paclitaxel]
increase from basal ROS levels (ROS (hydrogen peroxide)): 3-5 ×

COc1cccc2c1C(=O)c1c(O)c3c(c(O)c1C2=O)C[C@@](O)(C(=O)COC(=O)NCCSSCCNC(=O)Oc1cccc(-c2nc(N4CCOCC4)c4oc5ncccc5c4n2)c1)CC3OC1C[C@@H](C)[C@@H](O)[C@@H](N)C1 (stereo partly drawn) [MADC]
biodistribution (organ accumulation by fluorescence) [1]: greater concentration of the conjugate in the lung compared to the free drug administration
tumor growth suppression, in sequence with docetaxel ([2]; given after successive doses of docetaxel at MTD): elicited suppression of tumor growth, largely comparable to the combination of free drugs in similar sequence
tumor growth suppression, in sequence with vehicle ([2]; given after vehicle control): operated poorly to suppress tumor growth
dose-titration, tumor growth, lower concentration ([2]; in sequence with docetaxel, 3 mg/kg): greater effect than free drug combination
dose-titration, tumor growth, 5 mg/kg and 10 mg/kg ([2]; in sequence with docetaxel, 5 mg/kg and 10 mg/kg): saturating concentrations
systemic toxicity (toxic burden) (mice; MADC vs. free drug combination groups): significant reduction of toxic burden
hair and weight loss and myelosuppression indicated by splenic miniaturization (mice; MADC-treated cohorts vs free drug combination): significantly attenuated
splenic miniaturization in dose-titration (mice; lower concentration (3 mg/kg), in sequence with docetaxel): negligible
cardiotoxicity (activated caspase-3, immunoblots of whole heart lysate) (mice; mouse, in vivo): lower indication of cardiotoxicity

O=C(O)c1nn(Cc2ccc(Cl)cc2Cl)c2ccccc12 [Lonidamine]
response to dox in combination with inhibitor, DTC (MDA-MB-231 parent or DTC [3]; DTC, PI103 5 μM, lonidamine 10 μM, KB-458 and KB-697 10 μM): exquisitely responsive, overtly driven to cell death by dox in combination
response to dox in combination with inhibitor, parent cells (MDA-MB-231 parent or DTC [3]; drug naïve parent cells): little synergism or a reversion of synergy
glucose uptake of explant tumor tissue [4]: diminished capacity for glucose uptake

B1: catalase: an endogenous modulator of redox stress (protein, UniProt P04040 2-527, looked up)
Catalase: ADSRDPASDQMQHWKEQRAAQKADVLTTGAGNPVGDKLNVITVGPRGPLLVQDVVFTDEMAHFDRERIPERVVHAKGAGAFGYFEVTHDITKYSKAKVFEHIGKKTPIAVRFSTVAGESGSADTVRDPRGFAVKFYTEDGNWDLVGNNTPIFFIRDPILFPSFIHSQKRNPQTHLKDPDMVWDFWSLRPESLHQVSFLFSDRGIPDGHRHMNGYGSHTFKLVNANGEAVYCKFHYKTDQGIKNLSVEDAARLSQEDPDYGIRDLFNAIATGKYPSWTFYIQVMTFNQAETFPFNPFDLTKVWPHKDYPLIPVGKLVLNRNPVNYFAEVEQIAFDPSNMPPGIEASPDKMLQGRLFAYPDTHRHRLGPNYLHIPVNCPYRARVANYQRDGPMCMQDNQGGAPNYYPNSFGAPEQQPSALEHSIQYSGEVRRFNTANDDNVTQVRAFYVNVLNEEQRKRLCENIAGHLKDAQIFIQKKAVKNFTEVHPDYGSHIQALLDKYNAEKPKNAIHTFVQSGSHLAAREKANL
glucose consumption (2NBDG uptake) in DTC (MDA-MB-231 parent or DTC [5]): reduced potential for glucose consumption
total levels of reduced glutathione (GSH) in DTC (DTC): diminished total levels of reduced glutathione in DTC
